# From PubChem BioAssay AID248 (DTP/NCI, 2004)
# “And” between values parts separate entries of the source, which are not always exact repeats. Identical values can stand only once. Toxic doses and inconclusive results are not listed.
# Test system: L1210 leukemia ip in BDF1 mice, survival T/C
# Assay: NCI In Vivo Anticancer Drug Screen. Data for tumor model L1210 Leukemia (intraperitoneal) in B6D2F1 (BDF1) mice
# Conditions: endpoint: mean survival time, higher = longer survival
# Method in brief: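 Transplanted-tumor mice were given test agent; controls received vehicle only. Survival readings from the two groups were divided (treated over control).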
# [1] = dose: 100.0 mg/kg/injection, schedule: Q01DX009 (ip), vehicle: saline with Tween-80
# [2] = dose: 200.0 mg/kg/injection, schedule: Q01DX009 (ip), vehicle: saline with Tween-80
# [3] = dose: 400.0 mg/kg/injection, schedule: Q01DX009 (ip), vehicle: saline with Tween-80
# [4] = dose: 200.0 mg/kg/injection, schedule: Q04DX002 (ip), vehicle: saline with Tween-80
# [5] = dose: 100.0 mg/kg/injection, schedule: Q01DX001 (ip), vehicle: saline
# [6] = dose: 200.0 mg/kg/injection, schedule: Q01DX001 (ip), vehicle: saline
# [7] = dose: 400.0 mg/kg/injection, schedule: Q01DX001 (ip), vehicle: saline
# [8] = dose: 100.0 mg/kg/injection, schedule: Q01DX001 (ip), vehicle: Klucel (hydroxypropylcellulose) (HPC)
# [9] = dose: 200.0 mg/kg/injection, schedule: Q01DX001 (ip), vehicle: Klucel (hydroxypropylcellulose) (HPC)
# [10] = dose: 400.0 mg/kg/injection, schedule: Q01DX001 (ip), vehicle: Klucel (hydroxypropylcellulose) (HPC)
# [11] = dose: 100.0 mg/kg/injection, schedule: Q04DX002 (ip), vehicle: Klucel (hydroxypropylcellulose) (HPC)
# [12] = dose: 400.0 mg/kg/injection, schedule: Q04DX002 (ip), vehicle: saline with Tween-80
# [13] = dose: 100.0 mg/kg/injection, schedule: Q04DX003 (ip), vehicle: Klucel (hydroxypropylcellulose) (HPC)
# [14] = dose: 200.0 mg/kg/injection, schedule: Q04DX003 (ip), vehicle: Klucel (hydroxypropylcellulose) (HPC)
# [15] = dose: 400.0 mg/kg/injection, schedule: Q04DX003 (ip), vehicle: Klucel (hydroxypropylcellulose) (HPC)
# [16] = dose: 100.0 mg/kg/injection, schedule: Q01DX001 (ip), vehicle: carboxymethylcellulose (CMC)
# [17] = dose: 200.0 mg/kg/injection, schedule: Q01DX001 (ip), vehicle: carboxymethylcellulose (CMC)
structure (smiles),measurement,setting,value
Oc1ccc2ccccc2c1N=Nc1ccc(N=Nc2ccccc2)cc1,T/C,[1],102 % of control
same,T/C,[2],106 % of control
same,T/C,[3],102 % of control
CC(C)(F)C(Br)C(=O)O (stereo unspecified),T/C,[4],93 % of control
O=C(NCCCCC(NC(=O)OCc1ccccc1)C(=O)NCCCCCCN(CCCCCCNC(=O)C(CCCCNC(=O)OCc1ccccc1)NC(=O)OCc1ccccc1)C(=O)C(CCCCNC(=O)OCc1ccccc1)NC(=O)OCc1ccccc1)OCc1ccccc1 (stereo unspecified),T/C,[5],100 % of control
same,T/C,[6],94 % of control
same,T/C,[7],94 % of control
C[OH+]c1ccccc1C(=O)O.C[OH+]c1ccccc1C(=O)O.[Ni],T/C,"dose: 25.0 mg/kg/injection, schedule: Q04DX002 (ip), vehicle: saline with Tween-80",97 % of control and 103 % of control
same,T/C,"dose: 50.0 mg/kg/injection, schedule: Q04DX002 (ip), vehicle: saline with Tween-80",100 % of control and 107 % of control
same,T/C,[4],120 % of control and 90 % of control
CCOC(=O)C(CCC(=O)OC)C1=NC(C)(C)CC(C)O1 (stereo unspecified),T/C,[8],106 % of control
same,T/C,[9],110 % of control
same,T/C,[10],97 % of control
C[n+]1ccc2ccccc2c1,T/C,"dose: 50.0 mg/kg/injection, schedule: Q01DX009 (ip), vehicle: saline",105 % of control
same,T/C,"dose: 50.0 mg/kg/injection, schedule: Q04DX003 (ip), vehicle: saline",105 % of control
same,T/C,"dose: 100.0 mg/kg/injection, schedule: Q01DX009 (ip), vehicle: saline",100 % of control
same,T/C,"dose: 100.0 mg/kg/injection, schedule: Q04DX003 (ip), vehicle: saline",101 % of control
same,T/C,"dose: 200.0 mg/kg/injection, schedule: Q01DX009 (ip), vehicle: saline",107 % of control
same,T/C,"dose: 200.0 mg/kg/injection, schedule: Q04DX003 (ip), vehicle: saline",106 % of control
CCCCCCCCCCOC(=O)c1ccccn1,T/C,[5],93 % of control
same,T/C,[6],87 % of control
CCCCOc1cc([N+](=O)[O-])ccc1CO,T/C,[1],109 % of control
same,T/C,[2],98 % of control
same,T/C,[3],98 % of control
CCCCCCCCCCCCCC(=O)CC(=O)OC,T/C,"dose: 75.0 mg/kg/injection, schedule: Q04DX003 (ip), vehicle: Klucel (hydroxypropylcellulose) (HPC)",94 % of control
same,T/C,[8],103 % of control
same,T/C,"dose: 150.0 mg/kg/injection, schedule: Q04DX003 (ip), vehicle: Klucel (hydroxypropylcellulose) (HPC)",106 % of control
same,T/C,[9],100 % of control
same,T/C,"dose: 300.0 mg/kg/injection, schedule: Q04DX003 (ip), vehicle: Klucel (hydroxypropylcellulose) (HPC)",93 % of control
same,T/C,[10],96 % of control
CCOc1ccc(P2(=S)SP(=S)(c3ccc(OCC)cc3)S2)cc1 (stereo unspecified),T/C,[1],97 % of control
same,T/C,[11],94 % of control
same,T/C,[2],91 % of control
same,T/C,"dose: 200.0 mg/kg/injection, schedule: Q04DX002 (ip), vehicle: Klucel (hydroxypropylcellulose) (HPC)",88 % of control
same,T/C,[3],102 % of control
same,T/C,"dose: 400.0 mg/kg/injection, schedule: Q04DX002 (ip), vehicle: Klucel (hydroxypropylcellulose) (HPC)",102 % of control
CCC(O)C[As](=O)(O)c1ccc(Cl)cc1 (stereo unspecified),T/C,"dose: 1.56 mg/kg/injection, schedule: Q01DX009 (ip), vehicle: saline with Tween-80",97 % of control
CCOC(=O)/C(C#N)=C(\CCc1ccccc1)CC(C)C,T/C,"dose: 100.0 mg/kg/injection, schedule: Q04DX002 (ip), vehicle: saline with Tween-80",101 % of control
same,T/C,[4],101 % of control
same,T/C,[12],104 % of control
CSc1nc(SCc2ccc(Cl)cc2)ncc1C,T/C,"dose: 50.0 mg/kg/injection, schedule: Q01DX Z (ip), vehicle: methylcellulose (MC)",92 % of control
same,T/C,"dose: 200.0 mg/kg/injection, schedule: Q01DX Z (ip), vehicle: methylcellulose (MC)",94 % of control
CCCCCCC(N)C(=O)O (stereo unspecified),T/C,"dose: 25.0 mg/kg/injection, schedule: Q04DX002 (ip), vehicle: Klucel (hydroxypropylcellulose) (HPC)",95 % of control
same,T/C,"dose: 50.0 mg/kg/injection, schedule: Q04DX002 (ip), vehicle: Klucel (hydroxypropylcellulose) (HPC)",104 % of control
same,T/C,[11],100 % of control
same,T/C,[13],96 % of control
same,T/C,[14],100 % of control
same,T/C,[15],103 % of control
CC(C#N)c1cccc(C(=O)O)c1 (stereo unspecified),T/C,[16],105 % of control
same,T/C,[17],105 % of control
same,T/C,"dose: 400.0 mg/kg/injection, schedule: Q01DX001 (ip), vehicle: carboxymethylcellulose (CMC)",96 % of control
NNc1c(F)c(F)c(Br)c(F)c1F,T/C,"dose: 25.6 mg/kg/injection, schedule: Q04DX002 (ip), vehicle: saline with Tween-80",106 % of control
same,T/C,"dose: 64.0 mg/kg/injection, schedule: Q04DX002 (ip), vehicle: saline with Tween-80",95 % of control
same,T/C,"dose: 160.0 mg/kg/injection, schedule: Q04DX002 (ip), vehicle: saline with Tween-80",106 % of control
same,T/C,[12],95 % of control
CCN(CC)CC(C)(N)c1c2ccccc2nc2c1ccc1ccccc12 (stereo unspecified),T/C,"dose: 50.0 mg/kg/injection, schedule: Q01DX009 (ip), vehicle: other",101 % of control
same,T/C,"dose: 100.0 mg/kg/injection, schedule: Q01DX009 (ip), vehicle: other",111 % of control
same,T/C,"dose: 200.0 mg/kg/injection, schedule: Q01DX009 (ip), vehicle: other",119 % of control
O=[N+]([O-])c1cccc(OCCBr)c1,T/C,[5],101 % of control
same,T/C,[6],107 % of control
same,T/C,[7],103 % of control
CCCCOC(=Nc1ccccc1)N(c1ccccc1)c1ccccc1,T/C,"dose: 222.0 mg/kg/injection, schedule: Q01DX Z (ip), vehicle: methylcellulose (MC)",88 % of control
same,T/C,"dose: 333.0 mg/kg/injection, schedule: Q01DX Z (ip), vehicle: methylcellulose (MC)",94 % of control
same,T/C,"dose: 500.0 mg/kg/injection, schedule: Q01DX Z (ip), vehicle: methylcellulose (MC)",98 % of control
COc1cc(/C=N/OCc2cc3c(cc2Cl)OCO3)cc(OC)c1OC,T/C,"dose: 100.0 mg/kg/injection, schedule: Q04DX003 (ip), vehicle: saline with Tween-80",99 % of control
same,T/C,"dose: 200.0 mg/kg/injection, schedule: Q04DX003 (ip), vehicle: saline with Tween-80",94 % of control
same,T/C,"dose: 400.0 mg/kg/injection, schedule: Q04DX003 (ip), vehicle: saline with Tween-80",96 % of control
Nc1ccc(S(=O)(=O)CI)cc1,T/C,[16],100 % of control
same,T/C,[17],92 % of control
NC(=O)CNC1=C(N2CC2)C(=O)C(NCC(N)=O)=C(N2CC2)C1=O,T/C,"dose: 0.12 mg/kg/injection, schedule: Q04DX003 (ip), vehicle: saline",106 % of control
same,T/C,"dose: 0.25 mg/kg/injection, schedule: Q04DX003 (ip), vehicle: saline",101 % of control
same,T/C,"dose: 0.5 mg/kg/injection, schedule: Q04DX003 (ip), vehicle: saline",116 % of control
same,T/C,"dose: 1.0 mg/kg/injection, schedule: Q04DX003 (ip), vehicle: saline",119 % of control
same,T/C,"dose: 1.25 mg/kg/injection, schedule: Q01DX001 (ip), vehicle: saline",102 % of control
same,T/C,"dose: 1.25 mg/kg/injection, schedule: Q01DX009 (ip), vehicle: saline",102 % of control
same,T/C,"dose: 2.5 mg/kg/injection, schedule: Q01DX001 (ip), vehicle: saline",100 % of control
same,T/C,"dose: 2.5 mg/kg/injection, schedule: Q01DX009 (ip), vehicle: saline",124 % of control
same,T/C,"dose: 5.0 mg/kg/injection, schedule: Q01DX001 (ip), vehicle: saline",108 % of control
same,T/C,"dose: 5.0 mg/kg/injection, schedule: Q01DX009 (ip), vehicle: saline",163 % of control
same,T/C,"dose: 8.0 mg/kg/injection, schedule: Q04DX003 (ip), vehicle: saline",193 % of control
same,T/C,"dose: 10.0 mg/kg/injection, schedule: Q01DX001 (ip), vehicle: saline",115 % of control
same,T/C,"dose: 10.0 mg/kg/injection, schedule: Q01DX009 (ip), vehicle: saline",158 % of control and 191 % of control
same,T/C,"dose: 12.0 mg/kg/injection, schedule: Q04DX003 (ip), vehicle: saline",122 % of control
O=C(CC(O)(C(F)(F)F)C(F)(F)F)c1cc(CC(=O)C(O)(C(F)(F)F)C(F)(F)F)cc(CC(=O)C(O)(C(F)(F)F)C(F)(F)F)c1,T/C,[13],100 % of control
same,T/C,[14],92 % of control
same,T/C,[15],97 % of control
